One test deals with DAOY cells. Description: Cell Titer Glo viability assay. The test is classed as cell-based. The settings on record: Homo sapiens, 144 hours, Cell Titer Glo 2.0. The procedure:
(§1) DAOY medulloblastoma cell line (ATCC) was cultured in Minimum Essential Medium Eagle supplemented with 10% fetal calf serum (Sigma), 1% Penicillin-Streptomycin and 10 mM HEPES buffer (HyClone). Cell cultures were kept in a humidified incubator at 37° C. and 5% CO2. Cells were routinely tested for Mycoplasma contamination.
DAOY cells were seeded at a density of 250 cells per well in tissue culture 384 well plates (Corning Costar). After overnight incubation, cells were incubated with test compounds at concentrations ranging from 0.17 to 10,000 nM. Viability compared to untreated control was assessed at 144 hours using Cell Titer Glo® 2.0 Viability Assay (Promega).
(In general: Cellular ATP, detected with luciferase, serves as a proxy for viable cell number.)

Test [1] has as its target T1, recombinant human PMYT-1 (Myt1 kinase) (Homo sapiens, UniProt Q99640).
T1 construct: full length PMYT-1 was expressed by baculovirus in insect cells using a N-terminal GST tag; purchased Invitrogen A30984; host or cells: insect cells (baculovirus)
T1 sequence (Q99640 1-499): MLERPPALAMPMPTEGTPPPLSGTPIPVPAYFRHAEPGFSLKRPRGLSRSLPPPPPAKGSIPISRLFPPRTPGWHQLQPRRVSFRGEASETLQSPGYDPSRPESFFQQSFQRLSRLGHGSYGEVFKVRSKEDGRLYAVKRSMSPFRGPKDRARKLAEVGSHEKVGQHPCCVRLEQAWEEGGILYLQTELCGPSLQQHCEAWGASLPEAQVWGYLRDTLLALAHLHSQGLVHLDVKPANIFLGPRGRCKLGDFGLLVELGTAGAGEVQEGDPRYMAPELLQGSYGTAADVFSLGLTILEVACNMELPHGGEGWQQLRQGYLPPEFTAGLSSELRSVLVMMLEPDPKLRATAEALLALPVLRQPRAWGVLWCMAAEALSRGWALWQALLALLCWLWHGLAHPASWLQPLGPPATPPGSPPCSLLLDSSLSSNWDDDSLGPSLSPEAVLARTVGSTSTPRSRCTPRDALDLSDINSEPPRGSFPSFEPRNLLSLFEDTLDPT
Description: LanthaScreen Europium (Eu) Kinase Binding Assay for Myt1 kinase. The conditions noted are these: TR-FRET tracer 178 displacement, GST-tagged full length PMYT-1, 60 min, room temperature; mean IC50; read-out: LANTHA Kinase Binding for PMyt1. The text has this: We used a LanthaScreen Europium (Eu) Kinase Binding Assay to determine the binding of provided compounds to Myt1 kinase. The assay utilizes an Alexa Fluor 647-labeled ATP competitive kinase tracer that binds to the ATP binding site of a GST-tagged Myt1 kinase, while a europium (Eu) labeled antibody binds to the GST tag. The proximity of fluorescently labeled kinase tracer and europium (Eu) donor fluorophore antibody leads to fluorescence resonance energy transfer (FRET) to the fluorescence label (acceptor) upon excitation of the Eu (donor). Displacement of tracer from the ATP-binding site by a test compound disturbs the proximity between both labels thus lowering the FRET.
This time resolved-FRET binding assay was performed in white 384-well low volume plates (Greiner, cat #784075), at room temperature in kinase buffer A (KBA; Invitrogen cat # PV3189), consisting of 50 mM HEPES-NaOH (pH 7.5), 0.01% Brij-35, 10 mM MgCl2, and 1 mM EGTA. 5 μl of compound (diluted in reaction buffer, to 1% DMSO) were added to various wells in the plate, followed by 5 μl each of recombinant human PMYT-1 (full length PMYT-1 was expressed by baculovirus in insect cells using a N-terminal GST tag (MW: 80.8 kDa) (Invitrogen cat #A30984) and LanthaScreen Eu-anti-GST antibody (Invitrogen, cat #PV5594). After this, 5 μl of kinase tracer 178 (Invitrogen, cat #PV5593) was added to the plate and the plate was incubated for 60 minutes at room temperature. The final assay conditions in each well were: 3 nM tracer 178, 2.5 nM PMYT-1 and 1 nM Eu-labeled antibody in total assay volume of 15 μl. An Envision 2104 (Perkin-Elmer) Plate Reader with the following time-resolve fluorescence setting was used for performing LanthaScreen kinase binding assay. • Excitation 320 nm (30 nm bandpass) • Kinase Tracer Emission 665 nm (10 nm bandpass) • LanthaScreen Eu-anti-Tag Antibody Emission 615 nm (10 nm bandpass) • Dichroic Mirror Instrument dependent • Delay Time 100 μs • Integration Time 200 μs
To calculate the emission ratio, the acceptor/tracer emission ([…]) was divided by the antibody/donor emission ([…]) and the average of duplicate measurement was used for calculations. Data plotting, analysis of binding, and curve fitting was done using Excel add-in XLfit version 5.5.0.5 (IDBS, Guildford, United Kingdom).

In the next test the target is T2, Myt1 Kinase (Homo sapiens, UniProt Q99640).
T2 construct: endogenous in cells; host or cells: DAOY medulloblastoma cells (ATCC)
T2 sequence (Q99640 1-499): T1 sequence (Q99640 1-499)
Kind of test: AlphaLISA SureFire Ultra Human Phospho-CDK1 (Thr14) target engagement assay in DAOY cells. The test is classed as cell-based. The conditions noted are these: 4 h incubation, Cdk1 phosphorylated on threonine 14, read-out: TE Myt1 Kinase (AlphaLISA). The procedure:
The following cellular assay was used to determine the extent to which the compounds disclosed herein inhibit phosphorylation of CDK1 at Thr 14.
as §1
For target engagement assessment, quantification of Cdk1 phosphorylated on threonine 14 was detected using the AlphaLISA® SureFire® Ultra™ Human Phospho-CDK1 (Thr14) assay (Perkin Elmer). DAOY cells were seeded into tissue culture 96-well plates (VWR) to a density of 10,000 cells per well. Twenty-four hours post-seeding cells were incubated for 4 h with test compounds at concentrations ranging from 7 to 5000 nM. Cells were washed with PBS and lysed in 50 μl AlphaLISA® lysis buffer before freezing at −80° C. Ten μl of the lysate was transferred to 384 well plates and incubated with AlphaLISA® donor and acceptor beads according to the manufacturer's instructions. Dose response curves and EC50 values were calculated and visualized using GraphPad Prism version 9.

In the case of `Cc1ccc(O)c(C)c1-n1nc(-c2cc(-c3ccccc3)co2)c(C(N)=O)c1N` [Compound 88, 5-amino-1-(3-hydroxy-2,6-xylyl)-3-(4-phenyl-2-furyl)-4-pyrazolecarboxamide], the EC50 with DAOY cells was at most 500 nM; on Myt1 Kinase, at most 250 nM. The IC50 in test [1] was at most 10 nM.

With `Cc1coc(-c2nn(-c3c(C)ccc(O)c3C)c(N)c2C(N)=O)c1` [Compound 90, 5-amino-1-(3-hydroxy-2,6-xylyl)-3-(4-methyl-2-furyl)-4-pyrazolecarboxamide], the EC50 in the test on DAOY cells was at most 500 nM; on Myt1 Kinase it was at most 250 nM. For the same molecule, the IC50 in test [1] is at most 10 nM.

As to `Cc1ccc(O)c(C)c1-n1nc(-c2cc(-c3cccnc3)co2)c(C(N)=O)c1N` [Compound 94, 5-amino-1-(3-hydroxy-2,6-xylyl)-3-[4-(3-pyridyl)-2-furyl]-4-pyrazolecarboxamide], the EC50 is at most 500 nM in the test on DAOY cells and at most 250 nM at Myt1 Kinase. Also, the IC50 in test [1] was at most 10 nM.

As for `Cc1ccc(O)c(C)c1-n1nc(-c2cc(-c3ccncc3)co2)c(C(N)=O)c1N` [Compound 95, 5-amino-1-(3-hydroxy-2,6-xylyl)-3-[4-(4-pyridyl)-2-furyl]-4-pyrazolecarboxamide], the EC50 in the test with DAOY cells was at most 500 nM; on Myt1 Kinase, at most 250 nM. For the same molecule, in test [1], the IC50 is at most 10 nM.

On to `C=Cc1coc(-c2nn(-c3c(C)ccc(O)c3C)c(N)c2C(N)=O)c1` [Compound 96, 5-amino-1-(3-hydroxy-2,6-xylyl)-3-(4-vinyl-2-furyl)-4-pyrazolecarboxamide], for which the EC50 is at most 500 nM in the test with DAOY cells and at most 250 nM at Myt1 Kinase. Also, the IC50 in test [1] was at most 10 nM.

In the case of `C=C(C)c1coc(-c2nn(-c3c(C)ccc(O)c3C)c(N)c2C(N)=O)c1` [Compound 97, 5-amino-1-(3-hydroxy-2,6-xylyl)-3-(4-isopropenyl-2-furyl)-4-pyrazolecarboxamide], the EC50 was at most 500 nM in the test with DAOY cells and at most 250 nM on Myt1 Kinase. Also, the IC50 in test [1] was at most 10 nM.

Take `Cc1ccc(O)c(C)c1-n1nc(-c2cc(-c3ccccn3)co2)c(C(N)=O)c1N` [Compound 98, 5-amino-1-(3-hydroxy-2,6-xylyl)-3-[4-(2-pyridyl)-2-furyl]-4-pyrazolecarboxamide]: the results for the EC50 in the test with DAOY cells and on Myt1 Kinase were at most 500 nM and at most 250 nM, respectively. Besides, the IC50 in test [1] was at most 10 nM.

Turning to `Cc1ccc(O)c(C)c1-n1nc(-c2ccc(-c3ccncc3)o2)c(C(N)=O)c1N` [Compound 99, 5-amino-1-(3-hydroxy-2,6-xylyl)-3-[5-(4-pyridyl)-2-furyl]-4-pyrazolecarboxamide], the EC50 in the test on DAOY cells was over 1000 nM; on Myt1 Kinase, at most 250 nM. The IC50 in test [1] is at most 10 nM.

For `Cc1ccc(O)c(C)c1-n1nc(-c2ccc(C#N)o2)c(C(N)=O)c1N` [Compound 101, 5-amino-3-(5-cyano-2-furyl)-1-(3-hydroxy-2,6-xylyl)-4-pyrazolecarboxamide], the results for the EC50 in the test with DAOY cells and at Myt1 Kinase were over 1000 nM and at most 250 nM, respectively. For the same molecule, the IC50 in test [1] lay in the range of 10 to 100 nM.

For the molecule `Cc1ccc(O)c(C)c1-n1nc(-c2cc(C(C)C)co2)c(C(N)=O)c1N` [Compound 102, 5-amino-1-(3-hydroxy-2,6-xylyl)-3-(4-isopropyl-2-furyl)-4-pyrazolecarboxamide], the EC50 was at most 500 nM in the test with DAOY cells and at most 250 nM at Myt1 Kinase. The IC50 in test [1] is at most 10 nM.

With `CC(C)=Cc1coc(-c2nn(-c3c(C)ccc(O)c3C)c(N)c2C(N)=O)c1` [Compound 108, 5-amino-1-(3-hydroxy-2,6-xylyl)-3-[4-(2-methyl-1-propenyl)-2-furyl]-4-pyrazolecarboxamide], the values for the EC50 in the test on DAOY cells and on Myt1 Kinase were 500 to 1000 nM and at most 250 nM, respectively. Besides, the IC50 in test [1] is at most 10 nM.

For the molecule `Cc1ccc(O)c(C)c1-n1nc(-c2cc(C3CC3)co2)c(C(N)=O)c1N` [Compound 111, 5-amino-3-(4-cyclopropyl-2-furyl)-1-(3-hydroxy-2,6-xylyl)-4-pyrazolecarboxamide], the results for the EC50 with DAOY cells and at Myt1 Kinase were 500 to 1000 nM and at most 250 nM, respectively. Moreover, the IC50 in test [1] fell in the range of 10 to 100 nM.

(Values after US20260209208A1, “PHENYL-PYRAZOLE CARBOXAMIDE COMPOUNDS” (Acrivon Therapeutics, Inc., priority 2022, published 2026).)
